Patent US8383618B2, “C2-fluoro substituted piperazine linked pyrrolo[2,1-C][1,4] benzodiazepine dimers and a process for the preparation thereof” (Council of Scientific & Industrial Research, priority 2008, dated 2013)
Like-named read-outs stand apart in the source and are kept apart here.

How the values were obtained:
calf thymus (CT) DNA [1] = assay: Thermal denaturation studies; type: binding; conditions: [PBD]:[DNA] molar ratio 1:5; CT-DNA 100 μM, ligand 20 μM; sodium phosphate buffer pH 7.00
Experimental: The DNA binding affinity of the C2-Fluoro substituted piperazine linked pyrrolo[2,1c][1,4]benzodiazepine dimers were subjected to thermal denaturation studies using calf thymus (CT) DNA (Jones, G. B.; Davey, C. L.; Jenkins, T. C.; Kamal, A.; Kneale, G. G.; Neidle, S.; Webster, G. D.; Thurston, D. E. Anti-cancer Drug Des. 1990, 5, 249. McConnaughie, A. W.; Jenkins, T. C. J. Med. Chem. 1995, 38, 3488). The studies for these compounds (IXa-f) were carried out by DNA/ligand molar ratio is 1:5 the increase in the helix melting temperature (ΔTm) for each compound was examined at 0 h. […] Data for DSB-120 and SJG-136 are included in Table-3 for comparison. The synthetic DC-81 dimer (DSB-120) gives a ΔTm 10.2° C. and SJC-136 gives a […]Tm of 25° C. under identical experimental condition.

calf thymus (CT) DNA [2] = conditions: [PBD]:[DNA] molar ratio 1:5; literature value; listed as SJC-136; cited from earlier work
COLO 205 = assay: NCI in vitro anticancer screen (SRB); type: cell-based, human; conditions: Colon, 48 h exposure
Experimental: (§1) The above compounds were evaluated for in vitro anticancer activity against sixty human tumor cells derived from nine cancer types (leukemia, non small cell cancer, colon cancer CNS cancer, melanoma, ovarian cancer renal cancer, prostate cancer and breast cancer) as per NCI protocol. For each compound, dose response curves for each cell line were measured at a minimum of five concentrations at 10-fold dilution. A protocol of 48 h continuous drug exposure was used, and a sulforhodamine B (SRB) protein assay was used to estimate cell viability or growth. The concentration causing 50% cell growth inhibition (GI50), total cell growth inhibition (TGI, 0% growth) and 50% cell death (LC-50% growth) compared with the control was calculated.

MDA-MB-435 = assay: NCI in vitro anticancer screen (SRB); type: cell-based, human; conditions: Breast, 48 h exposure
Experimental: as §1

BT-549 = assay: NCI in vitro anticancer screen (SRB); type: cell-based, human; conditions: Breast, 48 h exposure
Experimental: as §1

DU-145 = assay: NCI in vitro anticancer screen (SRB); type: cell-based, human; conditions: Prostate, 48 h exposure
Experimental: as §1

RPMI-8226 = assay: NCI in vitro anticancer screen (SRB); type: cell-based, human; conditions: Leukemia, 48 h exposure
Experimental: as §1

T-47D = assay: NCI in vitro anticancer screen (SRB); type: cell-based, human; conditions: Breast, 48 h exposure
Experimental: as §1

HOP-62 = assay: NCI in vitro anticancer screen (SRB); type: cell-based, human; conditions: Non-small cell lung, 48 h exposure
Experimental: as §1

IGROV1 = assay: NCI in vitro anticancer screen (SRB); type: cell-based, human; conditions: Ovarian, 48 h exposure
Experimental: as §1

A498 = assay: NCI in vitro anticancer screen (SRB); type: cell-based, human; conditions: Renal, 48 h exposure
Experimental: as §1

SF-539 = assay: NCI in vitro anticancer screen (SRB); type: cell-based, human; conditions: CNS, 48 h exposure
Experimental: as §1

CAKI-1 = assay: NCI in vitro anticancer screen (SRB); type: cell-based, human; conditions: Renal, 48 h exposure
Experimental: as §1

786-0 = assay: NCI in vitro anticancer screen (SRB); type: cell-based, human; conditions: Renal, 48 h exposure
Experimental: as §1

M14 = assay: NCI in vitro anticancer screen (SRB); type: cell-based, human; conditions: Melanoma, 48 h exposure
Experimental: as §1

LOX IMVI = assay: NCI in vitro anticancer screen (SRB); type: cell-based, human; conditions: Melanoma, 48 h exposure
Experimental: as §1

MCF7 = assay: NCI in vitro anticancer screen (SRB); type: cell-based, human; conditions: Breast, 48 h exposure
Experimental: as §1

U251 = assay: NCI in vitro anticancer screen (SRB); type: cell-based, human; conditions: CNS, 48 h exposure
Experimental: as §1

K-562 = assay: NCI in vitro anticancer screen (SRB); type: cell-based, human; conditions: Leukemia, 48 h exposure
Experimental: as §1

HS 578T = assay: NCI in vitro anticancer screen (SRB); type: cell-based, human; conditions: Breast, 48 h exposure
Experimental: as §1

SK-OV-3 = assay: NCI in vitro anticancer screen (SRB); type: cell-based, human; conditions: Ovarian, 48 h exposure
Experimental: as §1

HCT-116 = assay: NCI in vitro anticancer screen (SRB); type: cell-based, human; conditions: Colon, 48 h exposure
Experimental: as §1

OVCAR-3 = assay: NCI in vitro anticancer screen (SRB); type: cell-based, human; conditions: Ovarian, 48 h exposure
Experimental: as §1

SK-MEL-28 = assay: NCI in vitro anticancer screen (SRB); type: cell-based, human; conditions: Melanoma, 48 h exposure
Experimental: as §1

SR = assay: NCI in vitro anticancer screen (SRB); type: cell-based, human; conditions: Leukemia, 48 h exposure
Experimental: as §1

SN12C = assay: NCI in vitro anticancer screen (SRB); type: cell-based, human; conditions: Renal, 48 h exposure
Experimental: as §1

MALME-3M = assay: NCI in vitro anticancer screen (SRB); type: cell-based, human; conditions: Melanoma, 48 h exposure
Experimental: as §1

HL-60(TB) = assay: NCI in vitro anticancer screen (SRB); type: cell-based, human; conditions: Leukemia, 48 h exposure
Experimental: as §1

SF-268 = assay: NCI in vitro anticancer screen (SRB); type: cell-based, human; conditions: CNS, 48 h exposure
Experimental: as §1

NCI-H23 = assay: NCI in vitro anticancer screen (SRB); type: cell-based, human; conditions: Non-small cell lung, 48 h exposure
Experimental: as §1

HOP-92 = assay: NCI in vitro anticancer screen (SRB); type: cell-based, human; conditions: Non-small cell lung, 48 h exposure
Experimental: as §1

NCI-H522 = assay: NCI in vitro anticancer screen (SRB); type: cell-based, human; conditions: Non-small cell lung, 48 h exposure
Experimental: as §1

CCRF-CEM = assay: NCI in vitro anticancer screen (SRB); type: cell-based, human; conditions: Leukemia, 48 h exposure
Experimental: as §1

NCI-H460 = assay: NCI in vitro anticancer screen (SRB); type: cell-based, human; conditions: Non-small cell lung, 48 h exposure
Experimental: as §1

SK-MEL-2 = assay: NCI in vitro anticancer screen (SRB); type: cell-based, human; conditions: Melanoma, 48 h exposure
Experimental: as §1

PC-3 = assay: NCI in vitro anticancer screen (SRB); type: cell-based, human; conditions: Prostate, 48 h exposure
Experimental: as §1

MOLT-4 = assay: NCI in vitro anticancer screen (SRB); type: cell-based, human; conditions: Leukemia, 48 h exposure
Experimental: as §1

SK-MEL-5 = assay: NCI in vitro anticancer screen (SRB); type: cell-based, human; conditions: Melanoma, 48 h exposure
Experimental: as §1

UACC-62 = assay: NCI in vitro anticancer screen (SRB); type: cell-based, human; conditions: Melanoma, 48 h exposure
Experimental: as §1

MDA-MB-468 = assay: NCI in vitro anticancer screen (SRB); type: cell-based, human; conditions: Breast, 48 h exposure
Experimental: as §1

SW-620 = assay: NCI in vitro anticancer screen (SRB); type: cell-based, human; conditions: Colon, 48 h exposure
Experimental: as §1

SNB-75 = assay: NCI in vitro anticancer screen (SRB); type: cell-based, human; conditions: CNS, 48 h exposure
Experimental: as §1

SNB-19 = assay: NCI in vitro anticancer screen (SRB); type: cell-based, human; conditions: CNS, 48 h exposure
Experimental: as §1

[3] = system: sixty human tumor cells derived from nine cancer types; assay: NCI in vitro anticancer screen (SRB), whole panel; type: cell-based
Experimental: as §1

[4] = human tumor cell lines, 48 h drug exposure, SRB

## COc1cc2c(cc1OCCCOc1cc3c(cc1OC)C(=O)N1CCC[C@H]1C=N3)N=C[C@@H]1CCCN1C2=O [DSB-120, reference compound]
Calf thymus (CT) DNA [1]
  ΔTm after incubation at 37° C. for 0 h: 10.2 °C

## 1,1′-{[(bisbutane-1,N-diyl)piperazine]dioxy}bis[(11aS)-2-fluoro-7-methoxy-1,2,3,11a-tetrahydro-5H-pyrrolo[2,1-c][1,4]benzodiazepine-5-one] [IXb]
Calf thymus (CT) DNA [1]
  ΔTm after incubation at 37° C. for 0 h: 38.0 °C

## COc1cc2c(cc1OCCCCN1CCN(CCCCOc3cc4c(cc3OC)C(=O)N3CC(F)(F)C[C@H]3C=N4)CC1)N=C[C@@H]1CC(F)(F)CN1C2=O [IXe, 1,1′-{[(bisbutane-1,N-diyl)piperazine]dioxy}bis[(11aS)-2-2-difluoro-7-methoxy-1,2,3,11a-tetrahydro-5H-pyrrolo[2,1-c][1,4]benzodiazepine-5-one]]
Calf thymus (CT) DNA [1]
  ΔTm after incubation at 37° C. for 0 h: 14.0 °C

## 1,1′-{[(bispentane-1,N-diyl)piperazine]dioxy}bis[(11aS)-2-fluoro-7-methoxy-1,2,3,11a-tetrahydro-5H-pyrrolo[2,1-c][1,4]benzodiazepine-5-one] [IXc]
Calf thymus (CT) DNA [1]
  ΔTm after incubation at 37° C. for 0 h: 37.0 °C

## C=C1C[C@H]2C=Nc3cc(OCCCOc4cc5c(cc4OC)C(=O)N4CC(=C)C[C@H]4C=N5)c(OC)cc3C(=O)N2C1 [SJG-136]
Calf thymus (CT) DNA [2]
  ΔTm after incubation at 37° C. for 0 h: 25 °C

## COc1cc2c(cc1OCCCCCN1CCN(CCCCCOc3cc4c(cc3OC)C(=O)N3CC(F)(F)C[C@H]3C=N4)CC1)N=C[C@@H]1CC(F)(F)CN1C2=O [IXf, 1,1′-{[(bispentane-1,N-diyl)piperazine]dioxy}bis[(11aS)-2-2-difluoro-7-methoxy-1,2,3,11a-tetrahydro-5H-pyrrolo[2,1-c][1,4]benzodiazepine-5-one]]
Calf thymus (CT) DNA [1]
  ΔTm after incubation at 37° C. for 0 h: 13.0 °C

## COc1cc2c(cc1OCCCN1CCN(CCCOc3cc4c(cc3OC)C(=O)N3CC(F)C[C@H]3C=N4)CC1)N=C[C@@H]1CC(F)CN1C2=O (stereo partly drawn) [Compound IXa, 1,1′-{[(bispropane-1,N-diyl)piperazine]dioxy}bis[(11aS)-2-fluoro-7-methoxy-1,2,3,11a-tetrahydro-5H-pyrrolo[2,1-c][1,4]benzodiazepine-5-one]]
COLO 205
  GI50: 40 nM
MDA-MB-435
  GI50: 34 nM
BT-549
  GI50: 95 nM
DU-145
  GI50: 47 nM
RPMI-8226
  GI50: 22 nM
T-47D
  GI50: 13 nM
HOP-62
  GI50: 12 nM
IGROV1
  GI50: 59 nM
A498
  GI50: 66 nM
SF-539
  GI50: 11 nM
CAKI-1
  GI50: 28 nM
786-0
  GI50: 39 nM
M14
  GI50: 35 nM
LOX IMVI
  GI50: 17 nM
MCF7
  GI50: 10 nM
U251
  GI50: 15 nM
K-562
  GI50: 15 nM
HS 578T
  GI50: 48 nM
SK-OV-3
  GI50: 70 nM
HCT-116
  GI50: 28 nM
OVCAR-3
  GI50: 48 nM
SK-MEL-28
  GI50: 31 nM
SK-MEL-28; listed as IX a
  GI50: 43 nM
SR
  GI50: 10 nM
SN12C
  GI50: 18 nM
MALME-3M
  GI50: 24 nM
HL-60(TB)
  GI50: 10 nM
SF-268
  GI50: 11 nM
NCI-H23
  GI50: 32 nM
HOP-92
  GI50: 96 nM
NCI-H522
  GI50: 10 nM
CCRF-CEM
  GI50: 10 nM
NCI-H460
  GI50: 10 nM
SK-MEL-2
  GI50: 43 nM
PC-3
  GI50: 15 nM
MOLT-4
  GI50: 10 nM
SK-MEL-5
  GI50: 31 nM
UACC-62
  GI50: 26 nM
MDA-MB-468
  GI50: 10 nM
SW-620
  GI50: 56 nM
SNB-75
  GI50: 33 nM
SNB-19
  GI50: 28 nM
[3]; against fifty nine cell lines in nine cell panels
  GI50: < 95 nM
[3]; [4]
  Log10 GI50 mean graph midpoint (MG_MID): −7.28
  Log10 LC50 mean graph midpoint (MG_MID): −4.65
  Log10 TGI mean graph midpoint (MG_MID): −6.12
Calf thymus (CT) DNA [1]
  ΔTm after incubation at 37° C. for 0 h: 37.0 °C
